In patent publication US20230406883A1, “COMPOUNDS AND THEIR USE IN TREATMENT OF TACHYKININ RECEPTOR MEDIATED DISORDERS” (Embark Biotech ApS, priority 2020, published 2023):
Numbered stars: 1 amine (or outer) side, 2 acyl side, 3 side chain; on linkers, the order of the positions; unused ones are H or OH. Square brackets hold non-standard residues; d marks the D form. Peptide text beside a SMILES is read from it. * marks the point of attachment. C20 diacid = O=C(O)CCCCCCCCCCCCCCCCCCC(=O)*; C18 diacid = O=C(O)CCCCCCCCCCCCCCCCC(=O)*; γGlu = O=C(O)[C@H](CCC(=O)[*:2])N[*:1]; C14 diacid = O=C(O)CCCCCCCCCCCCC(=O)*; mTyr = N[C@@H](Cc1cccc(O)c1)C(=O)O; NMeL = CN[C@@H](CC(C)C)C(=O)O; hSer = N[C@@H](CCO)C(=O)O; Nle = CCCC[C@H](N)C(=O)O; AEEA = NCCOCCOCC(=O)O; βAla = NCCC(=O)O

How the values were obtained:
Assay in all cases: IP3 assay (inositol trisphosphate, 3H-myoinositol) in transiently transfected COS-7 cells
Assay type in all cases: cell-based
hNK1R = molecular target: T1, hNK1R (Homo sapiens, UniProt P25103); details: COS-7 cells; for EC50: 0.2% ovalbumin buffer; for hNK1R, IP3 Efficacy: figure legends: percent of 10^-6 M NKA
T1 construct: host or cells: COS-7
T1 sequence (P25103 whole entry): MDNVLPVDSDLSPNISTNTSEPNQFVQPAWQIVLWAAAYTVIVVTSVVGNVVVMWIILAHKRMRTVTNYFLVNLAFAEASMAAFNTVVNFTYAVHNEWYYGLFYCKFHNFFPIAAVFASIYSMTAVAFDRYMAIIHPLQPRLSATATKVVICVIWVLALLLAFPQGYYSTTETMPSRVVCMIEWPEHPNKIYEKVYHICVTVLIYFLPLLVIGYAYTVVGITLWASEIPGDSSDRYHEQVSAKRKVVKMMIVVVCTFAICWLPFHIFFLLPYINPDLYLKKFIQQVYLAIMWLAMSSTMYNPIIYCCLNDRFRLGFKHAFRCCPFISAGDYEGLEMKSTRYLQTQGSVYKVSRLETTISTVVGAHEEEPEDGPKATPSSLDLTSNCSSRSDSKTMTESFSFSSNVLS
Protocol: (§1) Agonist-induced G-protein coupled receptor (GPCR) activation was measured by an Inositol-1,4,5-Trisphosphate [^3H] Radioreceptor Assay (IPs Assay). Assays were carried out using COS-7 cells transiently transfected by calcium phosphate transfection with a vector pcDNA3.1(+) encoding one of the indicated receptors (Genscript). Briefly, DNA mixed with CaCl2 (2 M) and TE-buffer (10 mM Tris-HCl, 1 mM EDTA, pH 7.5) was dropwise added to 2×HBS (50 mM HEPES, 280 mM NaCl, 1.5 mM NaH2PO4, pH 7.2) and incubated for 45 min at room temperature (22±2° C.). The mixture and a final concentration of 100 μM Chloroquine were added to the cells and left to incubate for 5 hours at 37° C. under standard cell culture conditions (10% CO2) before changing medium to fresh medium containing 5 μl/mL Myo-[2-^3H(N)]-inositol (labelling medium).
(§2) The IP3 assay takes advantage of the tachykinin receptors' ability to induce production of the inositol trisphosphate (IP3) second messenger upon agonist (ligand) binding on receptor expressing cells following an initial ^3H-inositol labelling period. In effect this means that production of the second messenger IP3 as a measure of receptor activity can be assessed by counting ^3H-activity.
(§3) Assay solutions used: Wash buffer (HBSS), Assay buffer (HBSS+10 mM LiCl and 0,2% w/v ovalbumin), Lysis buffer (10 mM formic acid), and SPA YSI beads (12.5 mg/ml in H2O). The assay was performed the day after transfection. Briefly, labelling medium was aspirated, and plates were washed ×1 in wash buffer before adding 100 μl assay buffer, pre-incubated for 30 min followed by 120 min incubation with agonist, both at 37° C. After incubation, plates were immediately placed on ice and the incubation medium was aspirated and 40 μl of 10 mM formic acid per well was added. Plates were incubated for at least 30 min on ice. 60 μl (1 mg/well) SPA YSI beads/well was pipetted into a solid white 96 wells plate and 35 μl of the lysis solution was transferred to the plate before covering plates with seal cover and shaking for 10 min. (max speed). Centrifuge plates and leave for 8 hours at room temperature before counting the plates in a MicroBeta plate counter (Perkin Elmer).

hNK2R = molecular target: T2, hNK2R (Homo sapiens, UniProt P21452); details: for EC50 / hNK2R, IP3 Efficacy: COS-7 cells; for EC50: 0.2% ovalbumin buffer; for hNK2R, IP3 Efficacy: figure legends: percent of 10^-6 M NKA
T2 construct: host or cells: COS-7
T2 sequence (P21452 1-398): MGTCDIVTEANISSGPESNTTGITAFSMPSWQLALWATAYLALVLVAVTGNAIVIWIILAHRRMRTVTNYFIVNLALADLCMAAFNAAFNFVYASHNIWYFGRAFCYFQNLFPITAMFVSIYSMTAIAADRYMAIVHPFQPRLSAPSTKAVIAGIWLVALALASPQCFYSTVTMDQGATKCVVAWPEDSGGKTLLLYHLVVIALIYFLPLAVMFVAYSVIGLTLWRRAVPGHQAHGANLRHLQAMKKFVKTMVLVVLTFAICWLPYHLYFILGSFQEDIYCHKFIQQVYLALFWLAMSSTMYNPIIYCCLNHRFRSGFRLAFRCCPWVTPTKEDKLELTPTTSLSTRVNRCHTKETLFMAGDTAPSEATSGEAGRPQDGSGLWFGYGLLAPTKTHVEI
Protocol: as §1, §2, §3

hNK3R = molecular target: T3, hNK3R (Homo sapiens, UniProt P29371); details: COS-7 cells; for hNK3, IP3 Efficacy: figure legends: percent of 10^-6 M NKA; for EC50: 0.2% ovalbumin buffer, read-out: hNK3, IP3 EC50
T3 construct: host or cells: COS-7
T3 sequence (P29371 1-465): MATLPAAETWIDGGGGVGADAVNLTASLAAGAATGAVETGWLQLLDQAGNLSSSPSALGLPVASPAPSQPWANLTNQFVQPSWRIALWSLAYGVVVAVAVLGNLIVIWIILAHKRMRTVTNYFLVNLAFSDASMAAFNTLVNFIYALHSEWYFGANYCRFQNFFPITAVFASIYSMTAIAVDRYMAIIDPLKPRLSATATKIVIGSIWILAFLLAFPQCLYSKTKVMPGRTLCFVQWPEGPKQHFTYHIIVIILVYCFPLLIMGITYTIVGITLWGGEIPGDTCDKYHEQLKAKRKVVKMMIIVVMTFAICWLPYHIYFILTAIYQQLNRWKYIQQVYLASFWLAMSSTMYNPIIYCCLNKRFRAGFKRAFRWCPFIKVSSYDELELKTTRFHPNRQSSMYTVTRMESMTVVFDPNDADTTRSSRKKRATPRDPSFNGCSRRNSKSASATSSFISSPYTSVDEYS
Protocol: as §1, §2, §3

Compound	EC50 (hNK1R)	hNK1R, IP3 Efficacy (hNK1R)	EC50 (hNK2R)	hNK2R, IP3 Efficacy (hNK2R)	hNK3, IP3 Efficacy (hNK3R)	hNK2R receptor activation, in words (hNK2R)	EC50 (hNK3R)
COCC[C@H](NC(=O)[C@H](CC(C)C)N(C)C(=O)CNC(=O)[C@@H](NC(=O)[C@H](Cc1ccc(O)cc1)NC(=O)[C@H](CCCCN)NC(=O)[C@H](CCC(=O)O)NC(=O)COCCOCCNC(=O)COCCOCCNC(=O)CC[C@H](NC(=O)CCCCCCCCCCCCCCCCC(=O)O)C(=O)O)C(C)C)C(N)=O [compound 382, *Glu;Lys;Tyr;Val;Gly;NmLeu;Metox;NH2] ({C18 diacid-γGlu-AEEA-AEEA}-EKYVG[NMeL][hSer](Me)-NH2)	~3800 nM	30%	3.7 nM	95%	20%	–	–
COc1ccc(C[C@H](NC(=O)[C@H](CC(C)C)N(C)C(=O)CNC(=O)[C@@H](NC(=O)[C@H](Cc2ccccc2)NC(=O)[C@H](CCCCN)NC(=O)[C@H](CC(=O)O)NC(=O)COCCOCCNC(=O)COCCOCCNC(=O)CC[C@H](NC(=O)CCCCCCCCCCCCCCCCC(=O)O)C(=O)O)C(C)C)C(N)=O)cc1 [compound 370, *Asp;Lys;Phe;Val;Gly;NmLeu;4-MeOPhe;NH2] ({C18 diacid-γGlu-AEEA-AEEA}-DKFVG[NMeL]Y(Me)-NH2)	–	20%	10 nM	90%	0%	–	–
CCCC[C@H](NC(=O)[C@H](CC(C)C)N(C)C(=O)CNC(=O)[C@@H](NC(=O)[C@H](Cc1ccc(O)cc1)NC(=O)[C@H](CCCNC(=N)N)NC(=O)[C@H](CCC(=O)O)NC(=O)COCCOCCNC(=O)COCCOCCNC(=O)CC[C@H](NC(=O)CCCCCCCCCCCCCCCCC(=O)O)C(=O)O)C(C)C)C(N)=O [compound 357, *Glu;Arg;Tyr;Val;Gly;NmLeu;Nle;NH2] ({C18 diacid-γGlu-AEEA-AEEA}-ERYVG[NMeL][Nle]-NH2)	–	50%	6.5 nM	90%	10%	–	–
CCCC[C@H](NC(=O)[C@H](CC(C)C)N(C)C(=O)CNC(=O)[C@@H](NC(=O)[C@H](Cc1ccc(I)cc1)NC(=O)[C@H](CCCCN)NC(=O)[C@H](CC(=O)O)NC(=O)COCCOCCNC(=O)COCCOCCNC(=O)CC[C@H](NC(=O)CCCCCCCCCCCCCCCCC(=O)O)C(=O)O)C(C)C)C(N)=O [compound 330, *Asp;Lys;4-I-Phe;Val;Gly;NmLeu;Nle;NH2]	~170 nM	40%	–	0%	0%	completely destroys NK2R activation	–
CCCC[C@H](NC(=O)[C@H](CC(C)C)N(C)C(=O)CNC(=O)[C@@H](NC(=O)[C@H](Cc1ccc(O)cc1)NC(=O)[C@H](CCCCN)NC(=O)[C@H](CC(=O)O)NC(=O)COCCOCCNC(=O)COCCOCCNC(=O)CC[C@H](NC(=O)CCCCCCCCCCCCC(=O)O)C(=O)O)C(C)C)C(N)=O [compound 368, *Asp;Lys;Tyr;Val;Gly;NmLeu;Nle;NH2] ({C14 diacid-γGlu-AEEA-AEEA}-DKYVG[NMeL][Nle]-NH2)	–	0%	19 nM	70%	0%	–	–
COCC[C@H](NC(=O)[C@H](CC(C)C)N(C)C(=O)CNC(=O)[C@@H](NC(=O)[C@H](Cc1ccccc1)NC(=O)[C@H](CCCCN)NC(=O)[C@H](CC(=O)O)NC(=O)COCCOCCNC(=O)COCCOCCNC(=O)CC[C@H](NC(=O)CCCCCCCCCCCCCCCCC(=O)O)C(=O)O)C(C)C)C(N)=O [compound 384, *Asp;Lys;Phe;Val;Gly;NmLeu;Metox;NH2] ({C18 diacid-γGlu-AEEA-AEEA}-DKFVG[NMeL][hSer](Me)-NH2)	16 nM	80%	0.9 nM	95%	85%	–	10 nM
*Asp;Lys;dPhe;Val;Gly;NmLeu;Nle;NH2 (DKFVGLL; N-terminal Conj-Neu-C18DA protractor; C-terminal amide; (1)..(1) Conj-Neu-C18; MOD_RES (3)..(3) D-Phe; MOD_RES (6)..(6) N-methyl-Leucine; MOD_RES (7)..(7) AMIDATION; MOD_RES (7)..(7) Nle) [compound 356, * is Conj-Neu-C18DA protractor on N-terminal α-amino group]	–	0%	–	0%	0%	completely destroys NK2R activation	–

Other lines, results leading:

EC50 (hNK1R)	hNK1R, IP3 Efficacy (hNK1R)	EC50 (hNK2R)	hNK2R, IP3 Efficacy (hNK2R)	hNK3, IP3 Efficacy (hNK3R)	hNK2R receptor activation, in words (hNK2R)	EC50 (hNK3R)	Compound
–	0%	~130 nM	53%	80%	–	~160 nM	CCCC[C@H](NC(=O)[C@H](CC(C)C)NC(=O)CCNC(=O)[C@@H](NC(=O)[C@H](Cc1ccccc1)NC(=O)[C@H](CO)NC(=O)[C@H](CC(=O)O)NC(=O)[C@@H](NC(=O)[C@H](CCCCN)NC(=O)COCCOCCNC(=O)COCCOCCNC(=O)CC[C@H](NC(=O)CCCCCCCCCCCCCCCCC(=O)O)C(=O)O)[C@@H](C)O)C(C)C)C(N)=O [compound 322, *Lys;Thr;Asp;Ser;Phe;Val;bAla;Leu;Nle;NH2] ({C18 diacid-γGlu-AEEA-AEEA}-KTDSFV[βAla]L[Nle]-NH2)
58 nM	20%	1.5 nM	90%	30%	–	~160 nM	CCCC[C@H](NC(=O)[C@H](CC(C)C)N(C)C(=O)CNC(=O)[C@@H](NC(=O)[C@H](Cc1ccc(O)cc1)NC(=O)[C@H](CCCCN)NC(=O)[C@H](CC(=O)O)NC(=O)COCCOCCNC(=O)COCCOCCNC(=O)CC[C@H](NC(=O)CCCCCCCCCCCCCCCCCCC(=O)O)C(=O)O)C(C)C)C(N)=O [compound 380, *Asp;Lys;Tyr;Val;Gly;NmLeu;Nle;NH2] ({C20 diacid-γGlu-AEEA-AEEA}-DKYVG[NMeL][Nle]-NH2)
200 nM	70%	2.3 nM	100%	60%	–	~47000 nM	CCCC[C@H](NC(=O)[C@H](CC(C)C)N(C)C(=O)CNC(=O)[C@@H](NC(=O)[C@H](Cc1cccc(O)c1)NC(=O)[C@H](CCCCN)NC(=O)[C@H](CC(=O)O)NC(=O)COCCOCCNC(=O)COCCOCCNC(=O)CC[C@H](NC(=O)CCCCCCCCCCCCCCCCC(=O)O)C(=O)O)C(C)C)C(N)=O [compound 361, *Asp;Lys;3-OH-Phe;Val;Gly;NmLeu;Nle;NH2] ({C18 diacid-γGlu-AEEA-AEEA}-DK[mTyr]VG[NMeL][Nle]-NH2)
19 nM	80%	2 nM	90%	65%	–	36 nM	CCCC[C@H](NC(=O)[C@H](CC(C)C)N(C)C(=O)CNC(=O)[C@@H](NC(=O)[C@H](Cc1ccccc1)NC(=O)[C@H](CCCNC(=N)N)NC(=O)[C@H](CC(=O)O)NC(=O)COCCOCCNC(=O)COCCOCCNC(=O)CC[C@H](NC(=O)CCCCCCCCCCCCCCCCC(=O)O)C(=O)O)C(C)C)C(N)=O [compound 306, *Asp;Arg;Phe;Val;Gly;NmLeu;Nle;NH2] ({C18 diacid-γGlu-AEEA-AEEA}-DRFVG[NMeL][Nle]-NH2)
